{
  "source": "paper PMC2813745",
  "about": "“A novel inhibitor of the PI3K/Akt pathway based on the structure of inositol 1,3,4,5,6-pentakisphosphate” (British Journal of Cancer, 2010)",
  "assay_type_in_all_cases": "biochemical",
  "key": {"[1]": {"target": "PRKCB1 (PKCβI) (Homo sapiens, UniProt P05771)", "test": "SelectScreen kinase profiling: PRKCB1", "conditions": "[ATP] 200 µM", "experimental": "(§1) Effect of the indicated compounds on the activity of various kinases was assessed by SelectScreen Kinase Profiling Service (Invitrogen-Life Technologies, Paisley, UK). Assays were performed using 1 μM of the tested compounds and ATP concentration as indicated in the corresponding tables. In the case of […] a screen using 10 μM of the compound was also carried out, as indicated in the corresponding table."}, "[2]": {"target": "CDK2/cyclin A (Homo sapiens, UniProt P24941)", "test": "SelectScreen kinase profiling: CDK2/cyclin A", "conditions": "[ATP] 25 µM", "experimental": "as §1"}, "[3]": {"target": "CDC42 BPA (MRCKA) (Homo sapiens, UniProt Q5VT25)", "sequence (Q5VT25 whole entry)": "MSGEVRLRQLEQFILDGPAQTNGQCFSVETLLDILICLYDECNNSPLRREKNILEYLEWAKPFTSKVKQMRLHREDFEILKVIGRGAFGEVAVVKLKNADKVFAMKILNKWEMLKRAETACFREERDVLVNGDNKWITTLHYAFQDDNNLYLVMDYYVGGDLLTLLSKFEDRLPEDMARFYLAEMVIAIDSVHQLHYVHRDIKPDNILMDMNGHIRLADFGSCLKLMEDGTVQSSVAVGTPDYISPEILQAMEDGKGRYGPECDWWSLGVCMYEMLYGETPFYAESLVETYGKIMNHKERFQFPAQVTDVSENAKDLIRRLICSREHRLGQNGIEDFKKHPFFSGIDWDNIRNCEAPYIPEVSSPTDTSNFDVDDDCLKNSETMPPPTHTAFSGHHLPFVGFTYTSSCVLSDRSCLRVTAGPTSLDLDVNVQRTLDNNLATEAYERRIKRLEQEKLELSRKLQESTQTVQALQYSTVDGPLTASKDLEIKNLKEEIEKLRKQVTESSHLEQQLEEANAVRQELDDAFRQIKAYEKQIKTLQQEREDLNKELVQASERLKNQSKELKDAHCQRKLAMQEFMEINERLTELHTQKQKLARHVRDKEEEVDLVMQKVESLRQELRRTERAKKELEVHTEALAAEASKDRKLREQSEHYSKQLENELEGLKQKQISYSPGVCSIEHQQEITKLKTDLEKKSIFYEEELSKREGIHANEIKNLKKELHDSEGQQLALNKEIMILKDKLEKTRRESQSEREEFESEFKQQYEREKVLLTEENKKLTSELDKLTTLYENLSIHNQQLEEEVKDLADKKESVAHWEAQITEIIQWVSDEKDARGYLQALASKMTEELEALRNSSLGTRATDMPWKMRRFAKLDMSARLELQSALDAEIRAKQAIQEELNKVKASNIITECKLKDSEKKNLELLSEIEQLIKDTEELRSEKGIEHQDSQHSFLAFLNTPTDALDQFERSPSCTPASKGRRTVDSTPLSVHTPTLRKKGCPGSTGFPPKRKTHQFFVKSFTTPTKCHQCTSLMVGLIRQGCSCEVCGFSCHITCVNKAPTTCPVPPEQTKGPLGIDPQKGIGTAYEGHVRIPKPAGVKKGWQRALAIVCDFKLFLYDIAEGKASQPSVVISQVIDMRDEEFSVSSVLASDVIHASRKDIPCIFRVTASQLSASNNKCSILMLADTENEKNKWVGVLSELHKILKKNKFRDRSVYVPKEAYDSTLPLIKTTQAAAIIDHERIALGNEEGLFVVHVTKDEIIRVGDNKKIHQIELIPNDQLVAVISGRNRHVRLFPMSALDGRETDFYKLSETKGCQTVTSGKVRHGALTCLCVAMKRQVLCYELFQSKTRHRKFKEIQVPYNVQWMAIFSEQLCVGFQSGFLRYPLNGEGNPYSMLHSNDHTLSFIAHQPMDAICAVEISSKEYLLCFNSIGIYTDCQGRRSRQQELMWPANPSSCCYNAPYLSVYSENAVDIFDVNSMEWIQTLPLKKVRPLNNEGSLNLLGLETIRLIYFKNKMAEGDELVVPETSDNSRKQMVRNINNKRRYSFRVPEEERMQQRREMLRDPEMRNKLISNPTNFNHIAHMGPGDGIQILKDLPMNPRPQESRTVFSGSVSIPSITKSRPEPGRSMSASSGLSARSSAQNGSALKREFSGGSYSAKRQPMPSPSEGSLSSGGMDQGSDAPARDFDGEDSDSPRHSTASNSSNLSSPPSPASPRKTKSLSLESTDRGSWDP", "test": "SelectScreen kinase profiling: CDC42 BPA", "conditions": "[ATP] 5 µM", "experimental": "as §1"}, "[4]": {"target": "CSNK1G1 (CK1γ1) (Homo sapiens, UniProt Q9HCP0)", "test": "SelectScreen kinase profiling: CSNK1G1", "conditions": "[ATP] 5 µM", "experimental": "as §1"}, "[5]": {"target": "ROCK2 (Homo sapiens, UniProt O75116)", "test": "SelectScreen kinase profiling: ROCK2", "conditions": "[ATP] 50 µM", "experimental": "as §1"}, "[6]": {"target": "CHEK2 (CHK2) (Homo sapiens, UniProt O96017)", "sequence (O96017 whole entry)": "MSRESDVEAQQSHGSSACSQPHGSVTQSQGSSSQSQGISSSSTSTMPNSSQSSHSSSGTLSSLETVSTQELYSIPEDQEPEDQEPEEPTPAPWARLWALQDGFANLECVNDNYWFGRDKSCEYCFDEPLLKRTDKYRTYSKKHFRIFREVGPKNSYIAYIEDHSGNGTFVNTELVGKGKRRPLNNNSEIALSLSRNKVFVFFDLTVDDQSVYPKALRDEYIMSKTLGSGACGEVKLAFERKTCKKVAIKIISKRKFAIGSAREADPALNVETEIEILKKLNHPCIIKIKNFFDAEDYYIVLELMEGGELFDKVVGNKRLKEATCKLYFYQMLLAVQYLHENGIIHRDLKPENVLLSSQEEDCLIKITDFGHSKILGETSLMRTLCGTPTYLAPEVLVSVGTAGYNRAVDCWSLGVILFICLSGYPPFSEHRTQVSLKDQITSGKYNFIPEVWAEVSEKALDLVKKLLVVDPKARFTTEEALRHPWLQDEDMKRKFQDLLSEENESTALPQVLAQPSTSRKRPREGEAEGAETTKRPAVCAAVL", "test": "SelectScreen kinase profiling: CHEK2", "conditions": "[ATP] 75 µM", "experimental": "as §1"}, "[7]": {"target": "T1, PDK1 (Homo sapiens, UniProt O15530)", "T1 sequence (O15530 1-556)": "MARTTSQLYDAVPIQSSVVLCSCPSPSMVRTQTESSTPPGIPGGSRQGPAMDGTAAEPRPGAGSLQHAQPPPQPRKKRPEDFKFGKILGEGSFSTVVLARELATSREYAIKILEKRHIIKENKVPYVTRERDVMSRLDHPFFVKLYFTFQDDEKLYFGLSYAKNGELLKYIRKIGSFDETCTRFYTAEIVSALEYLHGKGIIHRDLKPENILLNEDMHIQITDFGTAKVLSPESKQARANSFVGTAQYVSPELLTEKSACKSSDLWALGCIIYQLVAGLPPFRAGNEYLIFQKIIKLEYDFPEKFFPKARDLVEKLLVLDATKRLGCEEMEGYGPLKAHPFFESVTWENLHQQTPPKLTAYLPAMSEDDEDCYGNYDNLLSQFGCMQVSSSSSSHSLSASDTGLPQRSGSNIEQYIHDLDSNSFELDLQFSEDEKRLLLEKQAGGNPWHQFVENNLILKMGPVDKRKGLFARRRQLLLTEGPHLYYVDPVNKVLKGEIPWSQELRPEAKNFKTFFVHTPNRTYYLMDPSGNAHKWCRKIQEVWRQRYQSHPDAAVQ", "test": "SelectScreen kinase profiling: PDK1", "conditions": "for pIC50: 10-point titration, [ATP] 100 μM", "experimental": "as §1"}, "[8]": {"target": "GRK5 (Homo sapiens, UniProt P34947)", "test": "SelectScreen kinase profiling: GRK5", "conditions": "1 µM compound; [ATP] 5 µM", "experimental": "as §1"}, "[9]": {"target": "MARK1 (MARK) (Homo sapiens, UniProt Q9P0L2)", "test": "SelectScreen kinase profiling: MARK1", "conditions": "[ATP] 5 µM", "experimental": "as §1"}, "[10]": {"target": "IKBKB (IKKβ) (Homo sapiens, UniProt O14920)", "test": "SelectScreen kinase profiling: IKBKB", "conditions": "1 µM compound; [ATP] 5 µM", "experimental": "as §1"}, "[11]": {"target": "CHEK1 (CHK1) (Homo sapiens, UniProt O14757)", "sequence (O14757 whole entry)": "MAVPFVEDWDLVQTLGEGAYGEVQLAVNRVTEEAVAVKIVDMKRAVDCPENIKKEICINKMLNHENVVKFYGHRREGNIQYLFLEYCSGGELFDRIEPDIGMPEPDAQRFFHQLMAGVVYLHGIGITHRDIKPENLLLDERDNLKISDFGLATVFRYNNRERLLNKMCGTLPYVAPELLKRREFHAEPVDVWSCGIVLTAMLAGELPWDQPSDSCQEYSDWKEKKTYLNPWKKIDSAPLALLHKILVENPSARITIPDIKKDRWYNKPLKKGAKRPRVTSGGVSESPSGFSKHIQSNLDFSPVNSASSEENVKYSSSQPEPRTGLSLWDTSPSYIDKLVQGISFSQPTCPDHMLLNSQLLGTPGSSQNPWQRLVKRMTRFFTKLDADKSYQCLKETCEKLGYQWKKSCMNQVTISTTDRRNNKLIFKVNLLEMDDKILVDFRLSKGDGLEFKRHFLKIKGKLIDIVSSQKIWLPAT", "test": "SelectScreen kinase profiling: CHEK1", "conditions": "[ATP] 50 µM", "experimental": "as §1"}, "[12]": {"target": "AURKA (Aurora A) (Homo sapiens, UniProt O14965)", "sequence (O14965 whole entry)": "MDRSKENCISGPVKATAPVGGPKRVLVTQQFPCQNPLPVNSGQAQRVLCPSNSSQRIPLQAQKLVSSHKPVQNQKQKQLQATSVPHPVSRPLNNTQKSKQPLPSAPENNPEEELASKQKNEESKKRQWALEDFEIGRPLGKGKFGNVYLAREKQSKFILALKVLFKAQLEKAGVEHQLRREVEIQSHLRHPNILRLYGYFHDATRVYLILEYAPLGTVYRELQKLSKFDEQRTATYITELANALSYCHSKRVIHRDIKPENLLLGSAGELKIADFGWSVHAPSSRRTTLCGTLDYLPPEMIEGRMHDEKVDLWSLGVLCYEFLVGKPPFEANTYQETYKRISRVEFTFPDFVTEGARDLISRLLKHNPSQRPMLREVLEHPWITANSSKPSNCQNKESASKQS", "test": "SelectScreen kinase profiling: AURKA", "conditions": "1 µM compound; [ATP] 10 µM", "experimental": "as §1"}, "[13]": {"target": "PIK3CG (p110γ) (Homo sapiens, UniProt P48736)", "test": "SelectScreen kinase profiling: PIK3CG", "conditions": "[ATP] 25 µM", "experimental": "as §1"}, "[14]": {"target": "MAPK1 (ERK2) (Homo sapiens, UniProt P28482)", "test": "SelectScreen kinase profiling: MAPK1", "conditions": "[ATP] 100 µM", "experimental": "as §1"}, "[15]": {"target": "CDK5/p35 (Homo sapiens, UniProt Q00535)", "test": "SelectScreen kinase profiling: CDK5/p35", "conditions": "[ATP] 10 µM", "experimental": "as §1"}, "[16]": {"target": "MAP2K1 (MEK1) (Homo sapiens, UniProt Q02750)", "sequence (Q02750 whole entry)": "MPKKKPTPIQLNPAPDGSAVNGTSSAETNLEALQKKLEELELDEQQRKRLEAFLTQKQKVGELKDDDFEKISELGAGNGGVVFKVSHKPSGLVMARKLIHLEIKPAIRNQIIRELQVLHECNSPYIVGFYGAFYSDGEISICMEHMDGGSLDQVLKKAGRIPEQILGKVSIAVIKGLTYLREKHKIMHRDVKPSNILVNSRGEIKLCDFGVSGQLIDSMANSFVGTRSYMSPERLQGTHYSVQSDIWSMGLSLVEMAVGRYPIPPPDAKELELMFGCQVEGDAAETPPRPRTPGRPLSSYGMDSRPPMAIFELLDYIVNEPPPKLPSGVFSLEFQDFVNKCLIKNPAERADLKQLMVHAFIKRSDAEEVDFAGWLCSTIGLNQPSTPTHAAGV", "test": "SelectScreen kinase profiling: MAP2K1", "conditions": "[ATP] 100 µM", "experimental": "as §1"}, "[17]": {"target": "AMPK A2/B1/G1 (Homo sapiens, UniProt P54646)", "test": "SelectScreen kinase profiling: AMPK A2/B1/G1", "conditions": "1 µM compound; [ATP] 150 µM", "experimental": "as §1"}, "[18]": {"target": "CSNK2A2 (CK2α2) (Homo sapiens, UniProt P19784)", "test": "SelectScreen kinase profiling: CSNK2A2", "conditions": "[ATP] 50 µM", "experimental": "as §1"}, "[19]": {"target": "CDK7/cyclin H/MNAT1 (Homo sapiens, UniProt P50613)", "test": "SelectScreen kinase profiling: CDK7/cyclin H/MNAT1", "conditions": "[ATP] 150 µM", "experimental": "as §1"}, "[20]": {"target": "ITK (Homo sapiens, UniProt Q08881)", "sequence (Q08881 whole entry)": "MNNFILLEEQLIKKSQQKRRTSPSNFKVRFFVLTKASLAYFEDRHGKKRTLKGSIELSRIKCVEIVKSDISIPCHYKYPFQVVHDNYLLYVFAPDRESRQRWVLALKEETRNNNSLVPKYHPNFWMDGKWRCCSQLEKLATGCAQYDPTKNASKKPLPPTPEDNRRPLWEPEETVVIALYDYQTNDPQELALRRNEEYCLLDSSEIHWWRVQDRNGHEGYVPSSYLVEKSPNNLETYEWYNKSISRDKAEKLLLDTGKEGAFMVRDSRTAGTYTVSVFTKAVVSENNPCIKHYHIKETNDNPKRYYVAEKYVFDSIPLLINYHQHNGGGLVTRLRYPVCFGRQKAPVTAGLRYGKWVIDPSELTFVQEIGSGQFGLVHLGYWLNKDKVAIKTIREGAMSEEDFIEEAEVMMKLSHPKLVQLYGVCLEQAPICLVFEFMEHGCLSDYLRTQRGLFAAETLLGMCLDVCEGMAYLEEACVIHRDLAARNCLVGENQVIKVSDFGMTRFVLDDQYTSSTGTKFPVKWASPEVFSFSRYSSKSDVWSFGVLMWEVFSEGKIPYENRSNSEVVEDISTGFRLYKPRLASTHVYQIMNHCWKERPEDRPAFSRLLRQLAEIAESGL", "test": "SelectScreen kinase profiling: ITK", "conditions": "[ATP] 5 µM", "experimental": "as §1"}, "[21]": {"target": "PI4KB (PI4Kβ) (Homo sapiens, UniProt Q9UBF8)", "sequence (Q9UBF8 whole entry)": "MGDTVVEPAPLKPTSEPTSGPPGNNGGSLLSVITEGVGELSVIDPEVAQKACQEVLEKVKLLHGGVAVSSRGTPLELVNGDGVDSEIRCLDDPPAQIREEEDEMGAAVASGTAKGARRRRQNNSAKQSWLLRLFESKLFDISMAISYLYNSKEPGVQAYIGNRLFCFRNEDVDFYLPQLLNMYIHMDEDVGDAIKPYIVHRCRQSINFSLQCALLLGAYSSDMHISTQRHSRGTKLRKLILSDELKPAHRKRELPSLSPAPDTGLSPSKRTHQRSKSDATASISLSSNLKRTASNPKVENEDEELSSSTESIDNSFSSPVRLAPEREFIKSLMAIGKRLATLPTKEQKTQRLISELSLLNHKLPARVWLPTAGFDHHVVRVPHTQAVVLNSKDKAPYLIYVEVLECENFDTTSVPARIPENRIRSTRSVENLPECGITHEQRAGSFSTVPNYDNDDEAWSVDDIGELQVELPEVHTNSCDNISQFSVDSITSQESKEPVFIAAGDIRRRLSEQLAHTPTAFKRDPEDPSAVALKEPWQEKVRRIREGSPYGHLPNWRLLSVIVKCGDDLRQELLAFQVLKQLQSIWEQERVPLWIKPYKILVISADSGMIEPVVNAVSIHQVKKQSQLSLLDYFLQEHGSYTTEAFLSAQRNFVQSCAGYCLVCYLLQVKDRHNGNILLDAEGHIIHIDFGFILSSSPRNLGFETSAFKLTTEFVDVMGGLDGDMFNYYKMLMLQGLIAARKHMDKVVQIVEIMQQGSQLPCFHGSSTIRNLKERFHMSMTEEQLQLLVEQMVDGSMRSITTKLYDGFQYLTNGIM", "test": "SelectScreen kinase profiling: PI4KB", "conditions": "[ATP] 5 µM", "experimental": "as §1"}, "[22]": {"target": "PRKACA (PKA) (Homo sapiens, UniProt P17612)", "test": "SelectScreen kinase profiling: PRKACA", "conditions": "[ATP] 5 µM", "experimental": "as §1"}, "[23]": {"target": "PIK3CA/PIK3R1(p110α/p85α) (Homo sapiens, UniProt P42336)", "test": "SelectScreen kinase profiling: PIK3CA/PIK3R1", "conditions": "[ATP] 25 µM", "experimental": "as §1"}, "[24]": {"conditions": "1 µM compound, [ATP] 100 µM, single point"}},
  "note": "pIC50: −log10 of the molar value.",
  "data": [
    {"smiles": "O=P(O)(O)OC1C(O)C(OP(=O)(O)O)C(OP(=O)(O)O)C(OP(=O)(O)O)C1OP(=O)(O)O", "note": "(centres unmarked) [InsP5, inositol 1,3,4,5,6-pentakisphosphate]", "values": [
      {"measurement": "inhibition at 10 µM", "setting": "[1]; 10 µM compound", "result": 17, "unit": "%"},
      {"measurement": "inhibition at 10 µM", "setting": "[2]; 10 µM compound", "result": 9, "unit": "%"},
      {"measurement": "inhibition at 10 µM", "setting": "[3]; 10 µM compound", "result": 0, "unit": "%"},
      {"measurement": "inhibition at 10 µM", "setting": "[4]; 10 µM compound", "result": 13, "unit": "%"},
      {"measurement": "inhibition at 10 µM", "setting": "[5]; 10 µM compound", "result": 15, "unit": "%"},
      {"measurement": "inhibition at 10 µM", "setting": "[6]; 10 µM compound", "result": 15, "unit": "%"},
      {"measurement": "% Inhibition Mean", "setting": "[7]; [24]", "result": 68, "unit": "%"},
      {"measurement": "inhibition at 1 µM", "setting": "[7]; [24]", "result": 71, "unit": "%"},
      {"measurement": "inhibition at 10 µM", "setting": "[7]; 10 µM compound, [ATP] 100 µM", "result": 70, "unit": "%"},
      {"measurement": "pIC50", "setting": "[7]", "result": 6.21},
      {"measurement": "inhibition at 1 µM", "setting": "[8]", "result": 37, "unit": "%"},
      {"measurement": "inhibition at 10 µM", "setting": "[9]; 10 µM compound", "result": 7, "unit": "%"},
      {"measurement": "inhibition at 1 µM", "setting": "[10]", "result": 1, "unit": "%"},
      {"measurement": "inhibition at 10 µM", "setting": "[11]; 10 µM compound", "result": 17, "unit": "%"},
      {"measurement": "inhibition at 1 µM", "setting": "[12]", "result": 1, "unit": "%"},
      {"measurement": "inhibition at 10 µM", "setting": "[13]; 10 µM compound", "result": 4, "unit": "%"},
      {"measurement": "inhibition at 10 µM", "setting": "[14]; 10 µM compound", "result": 8, "unit": "%"},
      {"measurement": "inhibition at 10 µM", "setting": "[15]; 10 µM compound", "result": 5, "unit": "%"},
      {"measurement": "inhibition at 10 µM", "setting": "[16]; 10 µM compound", "result": 7, "unit": "%"},
      {"measurement": "inhibition at 1 µM", "setting": "[17]", "result": 7, "unit": "%"},
      {"measurement": "inhibition at 10 µM", "setting": "[18]; 10 µM compound", "result": 18, "unit": "%"},
      {"measurement": "inhibition at 10 µM", "setting": "[19]; 10 µM compound", "result": 0, "unit": "%"},
      {"measurement": "inhibition at 10 µM", "setting": "[20]; 10 µM compound", "result": 6, "unit": "%"},
      {"measurement": "inhibition at 10 µM", "setting": "[21]; 10 µM compound", "result": 3, "unit": "%"},
      {"measurement": "inhibition at 10 µM", "setting": "[22]; 10 µM compound", "result": 5, "unit": "%"},
      {"measurement": "inhibition at 10 µM", "setting": "[23]; 10 µM compound", "result": 5, "unit": "%"}
    ]},
    {"smiles": "O=P(O)(O)OC1C(OCc2ccccc2)C(OP(=O)(O)O)C(OP(=O)(O)O)C(OP(=O)(O)O)C1OP(=O)(O)O", "note": "(centres unmarked) [2-O-Bn-InsP5, 2-O-benzyl-myo-inositol 1,3,4,5,6-pentakisphosphate]", "values": [
      {"measurement": "inhibition at 1 µM", "setting": "[1]; 1 µM compound", "result": 11, "unit": "%"},
      {"measurement": "inhibition at 1 µM", "setting": "[2]; 1 µM compound", "result": 2, "unit": "%"},
      {"measurement": "inhibition at 1 µM", "setting": "[3]; 1 µM compound", "result": 17, "unit": "%"},
      {"measurement": "inhibition at 1 µM", "setting": "[4]; 1 µM compound", "result": 7, "unit": "%"},
      {"measurement": "inhibition at 1 µM", "setting": "[5]; 1 µM compound", "result": 13, "unit": "%"},
      {"measurement": "inhibition at 1 µM", "setting": "[6]; 1 µM compound", "result": 12, "unit": "%"},
      {"measurement": "inhibition at 1 µM", "setting": "[7]; [24]", "result": 79, "unit": "%"},
      {"measurement": "pIC50", "setting": "[7]", "result": 7.58},
      {"measurement": "inhibition at 1 µM", "setting": "[8]", "result": 34, "unit": "%"},
      {"measurement": "inhibition at 1 µM", "setting": "[9]; 1 µM compound", "result": 0, "unit": "%"},
      {"measurement": "inhibition at 1 µM", "setting": "[10]", "result": 13, "unit": "%"},
      {"measurement": "inhibition at 1 µM", "setting": "[11]; 1 µM compound", "result": 15, "unit": "%"},
      {"measurement": "inhibition at 1 µM", "setting": "[12]", "result": 34, "unit": "%"},
      {"measurement": "inhibition at 1 µM", "setting": "[13]; 1 µM compound", "result": -41, "unit": "%"},
      {"measurement": "inhibition at 1 µM", "setting": "[14]; 1 µM compound", "result": 6, "unit": "%"},
      {"measurement": "inhibition at 1 µM", "setting": "[15]; 1 µM compound", "result": 2, "unit": "%"},
      {"measurement": "inhibition at 1 µM", "setting": "[16]; 1 µM compound", "result": 14, "unit": "%"},
      {"measurement": "inhibition at 1 µM", "setting": "[17]", "result": 25, "unit": "%"},
      {"measurement": "inhibition at 1 µM", "setting": "[18]; 1 µM compound", "result": 2, "unit": "%"},
      {"measurement": "inhibition at 1 µM", "setting": "[19]; 1 µM compound", "result": -2, "unit": "%"},
      {"measurement": "inhibition at 1 µM", "setting": "[20]; 1 µM compound", "result": -11, "unit": "%"},
      {"measurement": "inhibition at 1 µM", "setting": "[21]; 1 µM compound", "result": 0, "unit": "%"},
      {"measurement": "inhibition at 1 µM", "setting": "[22]; 1 µM compound", "result": 4, "unit": "%"},
      {"measurement": "inhibition at 1 µM", "setting": "[23]; 1 µM compound", "result": 2, "unit": "%"}
    ]}
  ]
}
